Data taken from ChEMBL document CHEMBL4483862, “Open-source discovery of chemical leads for next-generation chemoprotective antimalarials” (2018).

System: Plasmodium berghei
Experiment: Luciferase/luciferin-expressing antifolate-resistant parasites were used to infect a culture of HepG2 cells that were pre-incubated with compounds. Infected hepatocytes emit light due to the luciferase reaction. Assay results are presented as the percent inhibition of light emission compared to control. […]
Format: functional
Details: sporozoite; for IC90: read-out: LUCIFERASE INFECTION ASSAY - IC90
[1] = read-out: LUCIFERASE INFECTION ASSAY - IC50

Compound | IC90 [µM] | IC50 [1] [µM] | further results
CCN1C(=O)N(Cc2cccc(OC)c2)C(=O)C12CCN(Cc1cnc(-c3ccccc3)s1)CC2 | > 6.73 | – | IC50 (HEPG2TOX_HILL_SLOPE 2.07, HEPG2TOX_R_SQUARED 0.932, PBLUC_HILL_SLOPE 9.26, PBLUC_R_SQUARED 0.304, read-out: LUCIFERASE INFECTION ASSAY - IC50): 5.74 µM
CC(=O)NCCNC(=O)c1ccc(OCC2CCCO2)cc1 (stereo not given) | > 2 | > 2 | –
CCCCCCn1c(SCC(=O)Nc2sc(C(=O)N(CC)CC)c(C)c2C(=O)OCC)nc2ccccc21 | > 10 | > 10 | –
Cc1onc(-c2c(Cl)cccc2Cl)c1NC(=O)Nc1ccc(Oc2ccc(C(C)(C)C)cc2)nc1 | > 6.45 | – | IC50 (FFLUC_HILL_SLOPE 11.2, FFLUC_R_SQUARED 0.206, PBLUC_HILL_SLOPE 0.638, PBLUC_R_SQUARED 0.443, read-out: LUCIFERASE INFECTION ASSAY - IC50): 2.71 µM
CSC1=C(C#N)C(=O)NC(c2c(Cl)cccc2Cl)S1 (stereo not given) | > 9.96 | – | IC50 (FFLUC_HILL_SLOPE 9.34, FFLUC_R_SQUARED 0.0497, read-out: LUCIFERASE INFECTION ASSAY - IC50): > 9.96 µM
c1ccc2c(CN3CCN(c4ncnc5sccc45)CC3)csc2c1 | > 10 | – | IC50 (HEPG2TOX_HILL_SLOPE 3.07, HEPG2TOX_R_SQUARED 0.815, PBLUC_HILL_SLOPE 3.96, PBLUC_R_SQUARED 0.666, read-out: LUCIFERASE INFECTION ASSAY - IC50): 6.85 µM
Cc1cc(O)c(C(C)C)cc1NC1=NC(=O)S/C1=C\c1cc(Cl)ccc1OCC(=O)Nc1ccc(Cl)cc1 | 3.24 | 2.98 | –
COc1ccc(C(=O)/C(=C/c2ccc(C)cc2C)c2nc3ccccc3[nH]2)cc1 | 4.07 | – | IC50 (FFLUC_HILL_SLOPE 13.7, FFLUC_R_SQUARED 0.282, HEPG2TOX_HILL_SLOPE 10.4, HEPG2TOX_R_SQUARED 0.664, PBLUC_HILL_SLOPE 15.9, PBLUC_R_SQUARED 0.277, read-out: LUCIFERASE INFECTION ASSAY - IC50): 3.54 µM
c1ccc(-c2cnc3sc(NCCc4ccncc4)nn23)cc1 | > 10.3 | > 10.3 | –
COc1ccc(NC(=O)c2cccc(S(=O)(=O)N(Cc3ccccc3)c3ccccc3Cl)c2)cn1 | > 10 | – | IC50 (PBLUC_HILL_SLOPE 11, PBLUC_R_SQUARED 0.0841, read-out: LUCIFERASE INFECTION ASSAY - IC50): 9.79 µM
CC(=O)N1CCc2cc(NC(=O)CNc3ccc(C)cc3C)ccc21 | > 10 | > 10 | –
FC(F)(F)c1nc2ccccc2n1-c1cc(-c2ccccc2)n[nH]1 | > 10 | – | IC50 (HEPG2TOX_HILL_SLOPE 5.49, HEPG2TOX_R_SQUARED 0.606, read-out: LUCIFERASE INFECTION ASSAY - IC50): > 10 µM
Cn1ccc2cc(-c3cn4c(-c5ccc6c(c5)OCO6)cnc4cn3)ccc21 | 0.402 | – | IC50 (HEPG2TOX_HILL_SLOPE 0.831, HEPG2TOX_R_SQUARED 0.884, PBLUC_HILL_SLOPE 11.3, PBLUC_R_SQUARED 0.726, read-out: LUCIFERASE INFECTION ASSAY - IC50): 0.33 µM
Cc1c(Cl)cc(NC(=O)Nc2ccccc2)c(O)c1Cl | > 10.6 | – | IC50 (PBLUC_HILL_SLOPE 11.8, PBLUC_R_SQUARED 0.519, read-out: LUCIFERASE INFECTION ASSAY - IC50): 9.83 µM
COCCOc1ccc(C(F)(F)F)cc1NC(=O)COC(=O)c1ccc2[nH]c3c(c2c1)CCCC3 | > 10 | – | IC50 (FFLUC_HILL_SLOPE 10.4, FFLUC_R_SQUARED 0.848, HEPG2TOX_HILL_SLOPE 1.66, HEPG2TOX_R_SQUARED 0.868, PBLUC_HILL_SLOPE 2.48, PBLUC_R_SQUARED 0.755, read-out: LUCIFERASE INFECTION ASSAY - IC50): 4.17 µM
Cc1cc(=O)nc(N(C(=O)Nc2ccccc2)c2cccc(C(F)(F)F)c2)n1C(=O)Nc1ccccc1 | > 10 | – | IC50 (PBLUC_HILL_SLOPE 12.5, PBLUC_R_SQUARED 0.105, read-out: LUCIFERASE INFECTION ASSAY - IC50): 9.27 µM
O=C(CNc1cccc(S(=O)(=O)N2CCOCC2)c1)N(C1CCCCC1)C1CCS(=O)(=O)C1 (stereo not given) | > 10 | > 10 | –
COC(=O)c1ccc2c(=O)n(-c3ccccc3)c(SC3CCCCC3=O)nc2c1 (stereo not given) | > 10 | > 10 | –
CN(C)CCCOc1ccc(-c2nnc3ccc(-c4cccc(Cl)c4)cn23)cc1 | > 10 | – | IC50 (HEPG2TOX_HILL_SLOPE 9.26, HEPG2TOX_R_SQUARED 0.159, PBLUC_HILL_SLOPE 2.15, PBLUC_R_SQUARED 0.0523, read-out: LUCIFERASE INFECTION ASSAY - IC50): 7.9 µM
Clc1ccc(N/N=C/c2sccc2Oc2ccccc2)cc1 | > 10 | > 10 | –
CSc1sc(-c2cc[nH]n2)c(-c2ccccc2)c1C#N | > 11.1 | > 11.1 | –
CCN(CC)c1ccc2cc(/C=N/NC(=O)C34CC5CC(CC(C5)C3)C4)c(=O)oc2c1 | > 10 | > 10 | –
COC(=O)c1cnc(Sc2nnc(C(F)(F)F)n2C)c([N+](=O)[O-])c1 | > 9.08 | – | IC50 (HEPG2TOX_HILL_SLOPE 7.14, HEPG2TOX_R_SQUARED 0.788, read-out: LUCIFERASE INFECTION ASSAY - IC50): > 9.08 µM

Compound | IC90 [µM] | IC50 [1] [µM] | further results
COc1ccccc1N1CCN(C(=O)c2cc3cc(Cl)ccc3o2)CC1 | > 8.9 | > 8.9 | –
O=C(Cc1cccs1)Nc1nc2ccccc2nc1N1CCCC1 | > 10 | – | IC50 (HEPG2TOX_HILL_SLOPE 4.38, HEPG2TOX_R_SQUARED 0.169, read-out: LUCIFERASE INFECTION ASSAY - IC50): > 10 µM
Clc1nc2ccccc2cc1/C=N/Cc1ccc2c(c1)OCO2 | > 10 | > 10 | –
NC(=O)c1nc[nH]c1NC(=O)Cc1ccc(-c2ccccc2)cc1 | > 10 | – | IC50 (PBLUC_HILL_SLOPE 1, PBLUC_R_SQUARED 0.17, read-out: LUCIFERASE INFECTION ASSAY - IC50): > 10 µM
CN(/N=C/c1ccc(Cl)cc1)c1ncc(Cl)cc1C(F)(F)F | > 9.48 | – | IC50 (PBLUC_HILL_SLOPE 3.36, PBLUC_R_SQUARED 0.0281, read-out: LUCIFERASE INFECTION ASSAY - IC50): 7.13 µM
CNc1nc2cnc(-c3ccc(OC)cc3C)cc2n1Cc1ccc(OC)c(OC)c1 | 1.22 | – | IC50 (PBLUC_HILL_SLOPE 14.3, PBLUC_R_SQUARED 0.611, read-out: LUCIFERASE INFECTION ASSAY - IC50): 1.04 µM
CC(C)(C)c1ccc(C(=O)ONC(=O)c2ccc(Cl)c(Cl)c2)cc1 | > 9.01 | > 9.01 | –
CCCNC(=O)C1(C)CCN(Cc2ccc3ccccc3c2Br)C1 (stereo not given) | > 8.48 | – | IC50 (PBLUC_HILL_SLOPE 5.63, PBLUC_R_SQUARED 0.42, read-out: LUCIFERASE INFECTION ASSAY - IC50): 5.79 µM
Cc1ccc(Nc2nc(COC(=O)c3ccccc3Sc3ccc(C(F)(F)F)cc3[N+](=O)[O-])cs2)cc1 | > 10 | > 10 | –
CC(NC(=O)c1ccccc1NC(=O)CN1CCN(C/C=C/c2ccccc2)CC1)c1ccccc1 (stereo not given) | 8.52 | – | IC50 (PBLUC_HILL_SLOPE 3.6, PBLUC_R_SQUARED 0.261, read-out: LUCIFERASE INFECTION ASSAY - IC50): 4.62 µM
O=C(NCc1ccccc1CN1CCOCC1)c1cccc(C(F)(F)F)c1 | > 10 | > 10 | –
CC1=C(C(=O)OC2CCC(C)CC2)C(c2ccc(C)cc2)NC(=O)N1 (stereo not given) | > 9.64 | – | IC50 (FFLUC_HILL_SLOPE 14.5, FFLUC_R_SQUARED 0.355, read-out: LUCIFERASE INFECTION ASSAY - IC50): > 9.64 µM
C(=N\c1ccccc1-n1cccc1)/c1cnc(-c2ccccc2)[nH]1 | > 10.6 | – | IC50 (PBLUC_HILL_SLOPE 8.03, PBLUC_R_SQUARED 0.709, read-out: LUCIFERASE INFECTION ASSAY - IC50): > 10.6 µM
COc1cc2c(cc1OC)C(c1cccs1)N(CC(=O)Nc1ccccc1C(F)(F)F)CC2 (stereo not given) | > 10 | – | IC50 (FFLUC_HILL_SLOPE 19.7, FFLUC_R_SQUARED 0.151, HEPG2TOX_HILL_SLOPE 1.77, HEPG2TOX_R_SQUARED 0.955, PBLUC_HILL_SLOPE 2.27, PBLUC_R_SQUARED 0.356, read-out: LUCIFERASE INFECTION ASSAY - IC50): 5.2 µM
COc1cc(-c2cnc3cnc(-c4ccccc4C)cn23)ccc1O | 5.32 | – | IC50 (FFLUC_HILL_SLOPE 9.6, FFLUC_R_SQUARED 0.0922, HEPG2TOX_HILL_SLOPE 3.65, HEPG2TOX_R_SQUARED 0.847, PBLUC_HILL_SLOPE 7.45, PBLUC_R_SQUARED 0.397, read-out: LUCIFERASE INFECTION ASSAY - IC50): 3.96 µM
Cc1ccc2[nH]c3c(c2c1)CCCC3N (stereo not given) | 10.5 | – | IC50 (HEPG2TOX_HILL_SLOPE 3.36, HEPG2TOX_R_SQUARED 0.51, PBLUC_HILL_SLOPE 2.39, PBLUC_R_SQUARED 0.343, read-out: LUCIFERASE INFECTION ASSAY - IC50): 4.17 µM
O=C(NC1CCCC1)c1ccc(-c2cn3c(-c4ccc5ncccc5c4)cnc3cn2)cc1 | > 7.61 | > 7.61 | –
CN(C)c1ncnc2scc(-c3ccc(Cl)cc3)c12 | > 11.4 | 4.05 | –
Cc1cc(C2=NNC(=CN3CCc4sccc4C3c3cccs3)O2)c(C)o1 (stereo not given) | > 10 | – | IC50 (FFLUC_HILL_SLOPE 3.77, FFLUC_R_SQUARED 0.256, read-out: LUCIFERASE INFECTION ASSAY - IC50): > 10 µM
COc1ccc(N(CCC(N)=O)CC(=O)NC(C)c2ccccc2OC)cc1 (stereo not given) | > 10 | > 10 | –
Cc1nnc(Oc2ccc(C#N)cc2Cl)c2ccccc12 | > 10 | – | IC50 (HEPG2TOX_HILL_SLOPE 10.4, HEPG2TOX_R_SQUARED 0.426, read-out: LUCIFERASE INFECTION ASSAY - IC50): > 10 µM
CCOc1cc(/C=C2\CSc3c(F)cccc3C2=O)cc(Cl)c1O | > 10 | – | IC50 (PBLUC_HILL_SLOPE 15.8, PBLUC_R_SQUARED 0.377, read-out: LUCIFERASE INFECTION ASSAY - IC50): 9.68 µM
